For one assay, the target named is T1, human LXRβ (Homo sapiens, UniProt P55055).
T1 construct: biotin (biotinylated); made in house; host or cells: E. coli
T1 sequence (P55055 1-460): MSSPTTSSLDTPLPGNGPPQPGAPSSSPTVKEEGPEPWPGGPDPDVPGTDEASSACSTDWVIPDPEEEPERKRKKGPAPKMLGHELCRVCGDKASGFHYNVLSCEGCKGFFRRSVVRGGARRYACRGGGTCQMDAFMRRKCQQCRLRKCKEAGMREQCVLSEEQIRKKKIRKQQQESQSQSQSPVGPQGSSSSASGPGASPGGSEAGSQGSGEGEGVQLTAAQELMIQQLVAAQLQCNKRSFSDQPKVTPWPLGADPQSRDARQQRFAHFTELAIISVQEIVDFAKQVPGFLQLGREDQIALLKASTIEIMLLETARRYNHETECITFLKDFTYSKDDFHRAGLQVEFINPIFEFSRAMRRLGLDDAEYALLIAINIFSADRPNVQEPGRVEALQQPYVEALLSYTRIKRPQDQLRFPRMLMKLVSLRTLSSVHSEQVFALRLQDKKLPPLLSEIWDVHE
Description: Ligand-binding test procedure for human LXRβ (3H T0901317 tracer, flash plates). Particulars: biotinylated hLXRβ, tracer 3H T0901317, +4° C. over night. The method, then: I. Ligand-Binding Test Procedure for Human LXRβ.
Receptor source: E. coli extracted from cells expressing biotinylated hLXRβ. Extract was made in a similar buffer as above, but with 50 mM TRIS.
Washed streptavidin and coated flash plates with wash buffer. Diluted receptor extract to give Bmax˜4000 cpm and add to the wells. Wrapped the plates in aluminum foil and stored them at +4° C. overnight.
(§1) Made a dilution series in DMSO of the test ligands. Made a 5 nM solution of the radioactive tracer in buffer. Mixed 250 μl diluted tracer with 5 μl of the test ligand from each concentration of the dilution series. Washed the receptor-coated flash plates. Added 200 μl per well of the ligand/radiolabel mixture to the receptor-coated flash plates. Wrapped the plates in aluminum foil and incubate at +4° C. over night.
Aspirated wells, and washed the flashed plates. Sealed the plate.
Measured the remaining radioactivity in the plate.

The target of the next assay is T2, human LXRα (Homo sapiens, UniProt Q13133).
T2 construct: biotin (biotinylated); made in house; host or cells: E. coli
T2 sequence (Q13133 1-447): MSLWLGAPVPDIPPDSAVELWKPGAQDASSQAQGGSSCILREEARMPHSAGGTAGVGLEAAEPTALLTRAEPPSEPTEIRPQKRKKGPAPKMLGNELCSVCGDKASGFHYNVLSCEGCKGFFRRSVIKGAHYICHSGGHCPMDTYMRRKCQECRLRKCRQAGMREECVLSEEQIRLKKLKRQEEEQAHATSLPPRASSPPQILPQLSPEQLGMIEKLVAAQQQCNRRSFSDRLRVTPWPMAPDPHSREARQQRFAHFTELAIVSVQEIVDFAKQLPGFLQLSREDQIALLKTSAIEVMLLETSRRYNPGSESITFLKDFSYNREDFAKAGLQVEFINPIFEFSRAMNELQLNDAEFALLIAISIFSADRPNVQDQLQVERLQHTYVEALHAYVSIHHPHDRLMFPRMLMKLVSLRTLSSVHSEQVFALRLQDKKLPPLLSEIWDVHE
Description: Ligand-binding test procedure for human LXRα (3H T0901317 tracer, flash plates). Particulars: biotinylated hLXRα, tracer 3H T0901317, +4° C. over night. The method, then:
II. Ligand-Binding Test Procedure for Human LXRα.
Receptor source: E. coli extract from cells expressing biotinylated hLXRα. Extract was made in a similar buffer as above, but with 50 mM TRIS.
Washed streptavidin and coated flash plates with wash buffer. Diluted receptor extract to give Bmax˜4000 cpm and add to the wells. Wrapped the plates in aluminum foil and stored them at +4° C. over night.
as §1
Aspirated wells, and wash the flashed plates. Sealed the plate. Measured the remaining radioactivity in the plate.

SMILES strings stand for the structures.

Consider `CCS(=O)(=O)c1cccc(Oc2ccc(Cl)c(-c3nc4cccc(C(F)(F)F)c4nc3C)c2)c1` [Example 56, 2-{2-chloro-5-[3-(ethylsulfonyl)phenoxy]phenyl}-3-methyl-5-(trifluoromethyl)quinoxaline], for which the values for the 50% inhibitory concentration (IC50) on human LXRβ and on human LXRα were 12 nM and 435 nM, respectively.

`Cc1nc2c(C(F)(F)F)cccc2nc1-c1cc(Oc2cccc(S(=O)(=O)C(C)C)c2)ccc1Cl` [Example 57, 2-(2-chloro-5-{3-[(1-methylethyl)sulfonyl]phenoxy}phenyl)-3-methyl-5-(trifluoromethyl)-quinoxaline]: the IC50 was found to be 78.9 nM on human LXRβ and 947 nM at human LXRα.

As to `Cc1nc2c(C(F)(F)F)cccc2nc1-c1cc(Oc2cccc(S(=O)(=O)CCCO)c2)ccc1Cl` [Example 58, 3-[(3-{4-chloro-3-[3-methyl-5-(trifluoromethyl)quinoxalin-2-yl]phenoxy}phenyl)sulfonyl]-propan-1-ol], the half-maximal inhibitory concentration (IC50) turned out to be 63.5 nM at human LXRβ and 810 nM at human LXRα.

With `Cc1nc2c(C(F)(F)F)cccc2nc1-c1cc(Oc2cc(F)cc(S(C)(=O)=O)c2)ccc1Cl` [Example 59, 2-{2-chloro-5-[3-fluoro-5-(methylsulfonyl)phenoxy]phenyl}-3-methyl-5-(trifluoromethyl)-quinoxaline], the figures for the IC50 on human LXRβ and on human LXRα were 32 nM and 249 nM, respectively.

For the compound `Cc1nc2c(C(F)(F)F)cccc2nc1-c1cc(Oc2cc(Cl)cc(S(C)(=O)=O)c2)ccc1Cl` [Example 60, 2-{2-chloro-5-[3-chloro-5-(methylsulfonyl)phenoxy]phenyl}-3-methyl-5-(trifluoromethyl)-quinoxaline], the IC50 was 159 nM on human LXRβ and greater than 1000 nM on human LXRα.

Regarding `CCS(=O)(=O)c1cccc(Oc2ccc(Cl)c(-c3nc4c(C(F)(F)F)cccc4nc3C)c2)c1` [Example 61, 3-{2-chloro-5-[3-(ethylsulfonyl)phenoxy]phenyl}-2-methyl-5-(trifluoromethyl)quinoxaline], the half-maximal inhibitory concentration (IC50) at human LXRβ came out at 29 nM; on human LXRα, 366 nM.

For the compound `Cc1nc2cccc(C(F)(F)F)c2nc1-c1cc(Oc2cccc(S(=O)(=O)C(C)C)c2)ccc1Cl` [Example 62, 3-(2-chloro-5-{3-[(1-methylethyl)sulfonyl]phenoxy}phenyl)-2-methyl-5-(trifluoromethyl)quinoxaline], the IC50 on human LXRβ worked out at 38 nM; at human LXRα it was 876 nM.

For `Cc1nc2cccc(C(F)(F)F)c2nc1-c1cc(Oc2cccc(S(=O)(=O)CCCO)c2)ccc1Cl` [Example 63, 3-[(3-{4-chloro-3-[3-methyl-8-(trifluoromethyl)quinoxalin-2-yl]phenoxy}phenyl)sulfonyl]-propan-1-ol], the figures for the IC50 at human LXRβ and at human LXRα were 48 nM and 979 nM, respectively.

Take `Cc1nc2cccc(C(F)(F)F)c2nc1-c1cc(Oc2cc(F)cc(S(C)(=O)=O)c2)ccc1Cl` [Example 64, 3-{2-chloro-5-[3-fluoro-5-(methylsulfonyl)phenoxy]phenyl}-2-methyl-5-(trifluoromethyl)-quinoxaline]: the half-maximal inhibitory concentration (IC50) at human LXRβ was 89 nM; at human LXRα it was 638 nM.

Turning to `Cc1nc2cccc(C(F)(F)F)c2nc1-c1cc(Oc2cc(Cl)cc(S(C)(=O)=O)c2)ccc1Cl` [Example 65, 3-{2-chloro-5-[3-chloro-5-(methylsulfonyl)phenoxy]phenyl}-2-methyl-5-(trifluoromethyl)-quinoxaline], the IC50 is 453 nM at human LXRβ and greater than 1000 nM at human LXRα.

For `Cc1nc2ccccc2nc1-c1cc(Oc2cccc(S(C)(=O)=O)c2)ccc1Cl` [Example 66, 2-{2-chloro-5-[3-(methylsulfonyl)phenoxy]phenyl}-3-methylquinoxaline], the IC50 is 361 nM at human LXRβ and greater than 1000 nM on human LXRα.

For `Cc1nc2cccc(Cl)c2nc1-c1ccc(-c2cccc(S(C)(=O)=O)c2)cc1` [Example 68, 5-chloro-2-methyl-3-[3′-(methylsulfonyl)biphenyl-4-yl]quinoxaline], the IC50 is 235 nM on human LXRβ and greater than 1000 nM at human LXRα.

In the case of `Cc1nc2cccc(C#N)c2nc1-c1ccc(-c2cccc(S(C)(=O)=O)c2)cc1` [Example 72, 2-methyl-3-[3′-(methylsulfonyl)biphenyl-4-yl]quinoxaline-5-carbonitrile], the IC50 was 3020 nM on human LXRβ and greater than 1000 nM on human LXRα.

In the case of `Cc1nc2cccc(C(F)(F)F)c2nc1-c1ccc(-c2cncc(S(C)(=O)=O)c2)cc1` [Example 73, 2-methyl-3-{4-[5-(methylsulfonyl)pyridin-3-yl]phenyl}-5-(trifluoromethyl)quinoxaline], the IC50 is 123 nM on human LXRβ and greater than 1000 nM at human LXRα.

`Cc1nc2c(C(F)(F)F)cccc2nc1-c1ccc(-c2cncc(S(C)(=O)=O)c2)cc1` [Example 74, 3-methyl-2-{4-[5-(methylsulfonyl)pyridin-3-yl]phenyl}-5-(trifluoromethyl)quinoxaline]: the IC50 at human LXRβ and on human LXRα was greater than 1000 nM each time.

In the case of `Cc1nc2c(C(F)(F)F)cccc2nc1-c1cc(Oc2cccc(S(=O)(=O)CCCF)c2)ccc1Cl` [Example 75, 2-(2-chloro-5-{3-[(3-fluoropropyl)sulfonyl]phenoxy}phenyl)-3-methyl-5-(trifluoromethyl)-quinoxaline], the figures for the IC50 on human LXRβ and on human LXRα were 287 nM and 2190 nM, respectively.

On to `Cc1nc2c(C(F)(F)F)cccc2nc1-c1cc(Oc2cccc(S(=O)(=O)CCCCl)c2)ccc1Cl` [Example 76, 2-(2-chloro-5-{3-[(3-chloropropyl)sulfonyl]phenoxy}phenyl)-3-methyl-5-(trifluoromethyl)-quinoxaline], for which the 50% inhibitory concentration (IC50) at human LXRβ was found to be 204 nM; on human LXRα, 401 nM.

In the case of `CS(=O)(=O)c1cccc(-c2cccc(Oc3cnc4c(Cl)cccc4n3)c2)c1` [Example 78, 5-chloro-2-{[3′-(methylsulfonyl)biphenyl-3-yl]oxy}quinoxaline], the IC50 on human LXRβ was 263 nM; at human LXRα it was greater than 1000 nM.

As to `CS(=O)(=O)c1cccc(-c2ccc(Oc3cnc4c(Cl)cccc4n3)cc2)c1` [Example 79, 5-chloro-2-{[3′-(methylsulfonyl)biphenyl-4-yl]oxy}quinoxaline], the IC50 on human LXRβ and on human LXRα was greater than 1000 nM in each case.

Consider `Cc1nc2c(Cl)cccc2nc1Oc1cccc(-c2cccc(S(C)(=O)=O)c2)c1` [Example 80, 5-chloro-3-methyl-2-{[3′-(methylsulfonyl)biphenyl-3-yl]oxy}quinoxaline], for which the half-maximal inhibitory concentration (IC50) on human LXRβ worked out at 108 nM; at human LXRα, 818 nM.

In the case of `CCS(=O)(=O)c1cccc(-c2cccc(Oc3nc4cccc(Cl)c4nc3C)c2)c1` [Example 81, 5-chloro-2-{[3′-(ethylsulfonyl)biphenyl-3-yl]oxy}-3-methylquinoxaline], the figures for the half-inhibitory concentration (IC50) on human LXRβ and on human LXRα were 240 nM and greater than 1000 nM, respectively.

Regarding `Cc1nc2c(Cl)cccc2nc1Oc1ccc(-c2cccc(S(C)(=O)=O)c2)cc1` [Example 82, 5-chloro-3-methyl-2-{[3′-(methylsulfonyl)biphenyl-4-yl]oxy}quinoxaline], the IC50 at human LXRβ was 1030 nM; at human LXRα, greater than 1000 nM.

Regarding `CCS(=O)(=O)c1cccc(-c2ccc(Oc3nc4cccc(Cl)c4nc3C)cc2)c1` [Example 83, 5-chloro-2-{[3′-(ethylsulfonyl)biphenyl-4-yl]oxy}-3-methylquinoxaline], the concentration for half-maximal inhibition (IC50) on human LXRβ and at human LXRα was greater than 1000 nM throughout.

The record behind these values is US20100120778A1, “QUINOXALINE-BASED LXR MODULATORS” (Wyeth, priority 2008, published 2010).
